Results taken from patent US12391679B2, “Benzamide-substituted bicyclic imidazo- and pyrazolo-fused -pyridine, -pyrimide, and -pyridazine compounds for treatment of inflammatory diseases” (ONCO3R Therapeutics BV, priority 2019, dated 2025).

Test system: C57BL/6N mice, bleomycin induced pulmonary fibrosis
Experiment: Therapeutic bleomycin induced pulmonary fibrosis 21-day mice model
Format: in vivo
Conditions: mouse, bleomycin 21-day; 10 mg/kg p.o. b.i.d. in PEG200/MC 0.5% 20/80 (v/v); meta-analysis of two pooled identical study runs
Description: The aim of the study is to test the efficacy of a test compound at three different doses in a 21-day model of bleomycin induced pulmonary fibrosis in mice.
This study is carried out on C57BL/6N male mice, supplied by Charles River (Calco, Italy), which are acclimatized for at least 5 days in an environment maintained at 22° C., at 55% relative humidity, with 15-20 air changes per hour under light cycles of 12 h. Mice pelleted food and water are provided ad libitum.
The solvent for the test solutions is prepared by adding 0.5 g of hydroxyethylcellulose (Natrosol™) into 500 mL aqua distillate (0.1%) under continuous stirring without heating for 5 h on a magnetic stirrer.
To prepare a solution for intranasal (i.n.) challenge, 0.8 mg/mL stock solutions of bleomycin (Cat #BML-AP302-0010, Enzo Life Sciences, Inc., USA) are thawed and diluted in 330 μL of saline. Prior to i.n. administration, mice are anesthetized i.p.
Finally, test compound solutions are prepared by dissolving the suitable amount of said test compound in PEG 400 or PEG 200 (20% of the final volume) then MC 0.5% (80% of the final volume) to reach final concentrations of 1 mg/mL, 0.3 mg/mL and 0.1 mg/mL, thus yielding compound for a doses of 10 mg/kg, 3 mg/kg and 1 mg/kg. […]
Pulmonary histological changes are assessed using Matsuse modification of Ashcroft score (Ashcroft et al. 1988; Matsuse et al. 1999). […]

Q: How did the “Ashcroft score compared to the vehicle group” value turn out when `COc1cc(-c2cnn3cc(C(C)(C)C#N)ccc23)cc(OC(F)F)c1C(=O)N[C@@H]1C[C@@H]1F` [Cpd 219, 4-[6-(1-cyano-1-methyl-ethyl)pyrazolo[1,5-a]pyridin-3-yl]-2-(difluoromethoxy)-N-[(1R,2S)-2-fluorocyclopropyl]-6-methoxy-benzamide] was run?
A: Its value is “statistically significant decrease”.
